From ChEMBL document CHEMBL1136341, “Synthesis and evaluation of chiral bicyclic proline FKBP12 ligands” (Bioorg Med Chem Lett, 2003)

Assay: In vitro binding affinity towards FKBP12 domain of peptidyl-propyl isomerase (PPIase)

Row | Compound | IC50
1 | CCC(C)(C)C(=O)C(=O)N1C2CCC(C2)[C@H]1C(=O)SCCCc1ccccc1 (stereo partly specified) | 2300 nM
2 | CCC(C)(C)C(=O)C(=O)N1C2CCC(C2)[C@H]1C(=O)SCCC(c1ccccc1)c1ccccc1 (stereo partly specified) | 980 nM
3 | O=C(SCCCc1ccccc1)[C@@H]1C2CCC(C2)N1S(=O)(=O)c1ccccc1 (stereo partly specified) | 910 nM
4 | O=C(OCCCc1ccccc1)[C@@H]1C2CCC(C2)N1S(=O)(=O)Cc1ccccc1 (stereo partly specified) | 1300 nM
5 | CCC(C)(C)C(=O)C(=O)N1C2CCC(C2)[C@@H]1C(=O)OCCCc1ccccc1 (stereo partly specified) | > 25000 nM
6 | O=C(OCCCc1ccccc1)[C@@H]1C2CCC(C2)N1S(=O)(=O)c1ccccc1 (stereo partly specified) | 650 nM
7 | COc1cc(C(=O)C(=O)N2C3CCCC2C(=O)OCCCCOC3=O)cc(OC)c1OC | 0.28 nM
8 | CCC(C)(C)C(=O)C(=O)N1C2CCC(C2)[C@@H]1C(=O)SCCC(c1ccccc1)c1ccccc1 (stereo partly specified) | > 25000 nM
9 | CCC(C)(C)C(=O)C(=O)N1C2CCC(C2)[C@@H]1C(=O)SCCCc1ccccc1 (stereo partly specified) | 22000 nM
10 | O=C1CC2CCCC(Sc3ccccc3)(C1)C2 (stereo unspecified) | 9.2 nM
11 | CCC(C)(C)C(=O)C(=O)N1C2CCC(C2)[C@@H]1C(=O)OCCCc1ccncc1 (stereo partly specified) | > 25000 nM
12 | CCC(C)(C)C(=O)C(=O)N1C2CCC(C2)[C@H]1C(=O)OCCCc1ccncc1 (stereo partly specified) | 15000 nM
13 | CCC(C)(C)C(=O)C(=O)N1C2CCC(C2)[C@H]1C(=O)OCCCCc1ccccc1 (stereo partly specified) | 710 nM
14 | CCC(C)(C)C(=O)C(=O)N1C2CCC(C2)[C@@H]1C(=O)OCCCCc1ccccc1 (stereo partly specified) | 5100 nM
15 | CCC(C)(C)C(=O)C(=O)N1C2CCC(C2)[C@H]1C(=O)OCCCc1ccccc1 (stereo partly specified) | 670 nM
16 | O=C(SCCCc1ccccc1)[C@@H]1C2CCC(C2)N1S(=O)(=O)Cc1ccccc1 (stereo partly specified) | 720 nM
